{
  "source": "patent US12678509B2",
  "about": "“Inhibitor of apoptosis (IAP) protein antagonists” (Sanford Burnham Prebys Medical Discovery Institute, priority 2019, dated 2026)",
  "assay": "Pharmacokinetic study in mice, snapshot PK",
  "format": "in vivo",
  "details": "female, C57BL/6J, mouse, plasma, ip, one hour after i.p. injection of 10 mg/kg",
  "how_it_was_run": "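Female C57BL/6J mice dosed i.p. at 10 mg/kg in 5% DMSO/10% Tween-80/85% water. Plasma from retro-orbital blood at 1 h post-dose, acetonitrile-extracted with indometacin internal standard, parent compound quantified by LC-MS/MS.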",
  "data": [
    {"molecule": "CN[C@@H](C)C(=O)N[C@H]1CCS[C@H]2CC(C)(C)[C@@H](C(=O)N[C@H]3c4ccccc4C[C@H]3OCC#CC#CCO[C@@H]3Cc4ccccc4[C@@H]3NC(=O)[C@H]3N4C(=O)[C@@H](NC(=O)[C@H](C)NC)CCS[C@H]4CC3(C)C)N2C1=O", "note": "[Compound 18a, (2S)-1-{[(4S,7S,9aS)-74{(1S,2R)-2-[(6-{[(1S,2R)-1-({[(4S,7S,9aS)-8,8-Dimethyl-4-{[(2S)-2-(methylammonio)propanoyl]amino}-5-oxooctahydropyrrolo[2,1-b][1,3]thiazepin-7-yl]carbonyl}amino)-2,3-dihydro-1H-inden-2-yl]oxy}hexa-2,4-diyn-1-yl)oxy]-2,3-dihydro-1H-inden-1-yl}carbamoyl)-8,8-dimethyl-5-oxooctahydropyrrolo[2,1-b][1,3]thiazepinyl]amino}-N-methyl-1-oxopropan-2-ammonium dichloride]", "values": [
      {"measurement": "concentration at 1 h", "value": 3.52, "unit": "µM"}
    ]}
  ]
}
